Results reported in PubChem BioAssay AID256 (DTP/NCI, 2004).
Where “and” joins values, the source holds several entries; their conditions need not be identical. Equal values may be shown once. Toxic doses and inconclusive results are not listed. The calls were made as follows: active = survival T/C of 150% or more; inactive = T/C below 125% in these data.

Test system: CD2F1 mice, L1210 leukemia ip, survival T/C
Assay: NCI In Vivo Anticancer Drug Screen. Data for tumor model L1210 Leukemia (intraperitoneal) in CD2F1 (CDF1) mice
Details: endpoint: mean survival time, higher = longer survival
Method in brief: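 Activity against a transplanted murine tumor was judged by comparing the compound group with a vehicle group. The outcome in the treated animals was divided by that in the controls.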

[1] = dose: 1.25 mg/kg/injection, schedule: Q01DX009 (ip), vehicle: saline with Tween-80
[2] = dose: 2.5 mg/kg/injection, schedule: Q01DX009 (ip), vehicle: saline with Tween-80
[3] = dose: 5.0 mg/kg/injection, schedule: Q01DX009 (ip), vehicle: saline with Tween-80
[4] = dose: 100.0 mg/kg/injection, schedule: Q04DX003 (ip), vehicle: saline
[5] = dose: 200.0 mg/kg/injection, schedule: Q04DX003 (ip), vehicle: saline
[6] = dose: 400.0 mg/kg/injection, schedule: Q04DX003 (ip), vehicle: saline
[7] = dose: 50.0 mg/kg/injection, schedule: Q01DX009 (ip), vehicle: saline with Tween-80
[8] = dose: 100.0 mg/kg/injection, schedule: Q01DX001 (ip), vehicle: saline with Tween-80
[9] = dose: 100.0 mg/kg/injection, schedule: Q01DX009 (ip), vehicle: saline with Tween-80
[10] = dose: 100.0 mg/kg/injection, schedule: Q04DX003 (ip), vehicle: saline with Tween-80
[11] = dose: 200.0 mg/kg/injection, schedule: Q04DX003 (ip), vehicle: saline with Tween-80
[12] = dose: 100.0 mg/kg/injection, schedule: Q01DX001 (ip), vehicle: saline
[13] = dose: 75.0 mg/kg/injection, schedule: Q01DX001 (ip), vehicle: other
[14] = dose: 150.0 mg/kg/injection, schedule: Q01DX001 (ip), vehicle: other
[15] = dose: 300.0 mg/kg/injection, schedule: Q01DX001 (ip), vehicle: other
[16] = dose: 6.25 mg/kg/injection, schedule: Q01DX005 (ip), vehicle: water
[17] = dose: 12.5 mg/kg/injection, schedule: Q01DX005 (ip), vehicle: water
[18] = dose: 25.0 mg/kg/injection, schedule: Q01DX005 (ip), vehicle: water
[19] = dose: 400.0 mg/kg/injection, schedule: Q04DX003 (ip), vehicle: saline with Tween-80
[20] = dose: 200.0 mg/kg/injection, schedule: Q01DX009 (ip), vehicle: saline with Tween-80
[21] = dose: 400.0 mg/kg/injection, schedule: Q01DX009 (ip), vehicle: saline with Tween-80

Measured: T/C

CCCCCCCCCCCCCCCC1=NC(C)(C)CN1C(C)C
inactive: [1] 95 % of control | [2] 102 % of control | [3] 98 % of control

COC1(C)CCC(=O)O1 (configuration not stated)
inactive: [4] 96 % of control | [5] 96 % of control | [6] 101 % of control

CC(=O)Nc1ccc(S(=O)(=O)F)cc1
inactive: [7] 93 % of control | [8] 91 % of control | [9] 93 % of control | [10] 94 % of control | dose: 200.0 mg/kg/injection, schedule: Q01DX001 (ip), vehicle: saline with Tween-80 100 % of control | [11] 102 % of control

CCCCCCCCCCCCCCC/C([O-])=N/[N+](C)(C)CC(C)O (configuration not stated)
inactive: dose: 25.0 mg/kg/injection, schedule: Q01DX001 (ip), vehicle: saline 95 % of control and 100 % of control | dose: 50.0 mg/kg/injection, schedule: Q01DX001 (ip), vehicle: saline 100 % of control | [7] 89 % of control | [12] 89 % of control and 97 % of control | [9] 91 % of control | dose: 200.0 mg/kg/injection, schedule: Q01DX001 (ip), vehicle: saline 97 % of control | dose: 400.0 mg/kg/injection, schedule: Q01DX001 (ip), vehicle: saline 100 % of control

CCCCCCCCCCCCCC(=O)O.[Pb]
inactive: [13] 98 % of control | [14] 101 % of control | [15] 101 % of control

CC(C)(C)OOC(=O)Nc1ccc(Cl)cc1
inactive: dose: 25.0 mg/kg/injection, schedule: Q01DX001 (ip), vehicle: saline with Tween-80 88 % of control | dose: 50.0 mg/kg/injection, schedule: Q01DX001 (ip), vehicle: saline with Tween-80 92 % of control | [8] 88 % of control

CCCCCCCC1SC(=S)NC1=O (configuration not stated)
inactive: dose: 12.5 mg/kg/injection, schedule: Q01DX009 (ip), vehicle: other 95 % of control | dose: 25.0 mg/kg/injection, schedule: Q01DX009 (ip), vehicle: other 89 % of control | dose: 50.0 mg/kg/injection, schedule: Q01DX009 (ip), vehicle: other 100 % of control | dose: 100.0 mg/kg/injection, schedule: Q01DX009 (ip), vehicle: other 91 % of control

O=CO.[Mn]
inactive: dose: 5.0 mg/kg/injection, schedule: Q01DX001 (ip), vehicle: saline 96 % of control | dose: 10.0 mg/kg/injection, schedule: Q01DX001 (ip), vehicle: saline 101 % of control | dose: 20.0 mg/kg/injection, schedule: Q01DX001 (ip), vehicle: saline 96 % of control | dose: 40.0 mg/kg/injection, schedule: Q01DX001 (ip), vehicle: saline 96 % of control | dose: 80.0 mg/kg/injection, schedule: Q01DX001 (ip), vehicle: saline 98 % of control

O=C(CC(C(=O)c1ccccc1)c1ccccc1)c1ccccc1 (configuration not stated)
inactive: dose: 100.0 mg/kg/injection, schedule: Q01DX001 (ip), vehicle: Klucel (hydroxypropylcellulose) (HPC) 90 % of control | dose: 200.0 mg/kg/injection, schedule: Q01DX001 (ip), vehicle: Klucel (hydroxypropylcellulose) (HPC) 101 % of control | dose: 400.0 mg/kg/injection, schedule: Q01DX001 (ip), vehicle: Klucel (hydroxypropylcellulose) (HPC) 98 % of control

O=C(C=[As](c1ccccc1)(c1ccccc1)c1ccccc1)c1ccccc1
inactive: [13] 91 % of control | [14] 100 % of control | [15] 91 % of control

CC1=C2C(=CC(C)(CO)C2O)C(O)C(C)(O)C12CC2 (configuration not stated)
inactive: dose: 1.56 mg/kg/injection, schedule: Q01DX005 (ip), vehicle: water 94 % of control | dose: 3.13 mg/kg/injection, schedule: Q01DX005 (ip), vehicle: water 87 % of control | [16] 89 % of control | [17] 94 % of control | [18] 100 % of control

O=C(O)C1CC1c1ccccc1 (configuration not stated)
inactive: [10] 95 % of control | [11] 103 % of control | [19] 100 % of control

CC1C2CCC(C2)C1C(=O)O (configuration not stated)
inactive: [9] 98 % of control | dose: 100.0 mg/kg/injection, schedule: Q04DX003 (ip), vehicle: other 94 % of control | [20] 94 % of control | dose: 200.0 mg/kg/injection, schedule: Q04DX003 (ip), vehicle: other 87 % of control | [21] 86 % of control | dose: 400.0 mg/kg/injection, schedule: Q04DX003 (ip), vehicle: other 90 % of control

O=C1C(c2ccccc2)=C(c2ccccc2)CC(c2ccccc2)C1c1ccccc1 (configuration not stated)
inactive: [10] 97 % of control | [11] 97 % of control | [19] 95 % of control

CC1(C)C/C(=C\c2cc(O)ccc2[N+](=O)[O-])C(=O)c2ccccc21
inactive: [9] 97 % of control | [10] 101 % of control | [20] 94 % of control | [11] 106 % of control | [21] 97 % of control | [19] 103 % of control

CCCCNC(=O)Oc1ccc(C(=O)OCC)cc1
inactive: dose: 25.0 mg/kg/injection, schedule: Q01DX009 (ip), vehicle: saline with Tween-80 100 % of control | [7] 97 % of control | [9] 97 % of control and 100 % of control | [10] 96 % of control | [11] 96 % of control | [19] 90 % of control

OCC1OC(n2ccc3c2ncn2ncnc32)C(O)C1O (configuration not stated)
inactive: [16] 114 % of control | [17] 114 % of control | [18] 117 % of control | dose: 50.0 mg/kg/injection, schedule: Q01DX005 (ip), vehicle: water 88 % of control and 106 % of control

O=C1C(=O)c2cccnc2C(NC2CC3CCC2C3)=C1Cl (configuration not stated)
inactive: dose: 75.0 mg/kg/injection, schedule: Q04DX003 (ip), vehicle: saline 95 % of control | dose: 150.0 mg/kg/injection, schedule: Q04DX003 (ip), vehicle: saline 98 % of control | dose: 300.0 mg/kg/injection, schedule: Q04DX003 (ip), vehicle: saline 97 % of control

CCCCN1C(=O)C(=O)N(c2cc(OC)ccc2OC)C1=O
inactive: [7] 86 % of control | [9] 90 % of control | [20] 86 % of control

N#Cc1nc2c(n(O)c1=N)CCC/C2=N\O
inactive: dose: 100.0 mg/kg/injection, schedule: Q04DX003 (ip), vehicle: Klucel (hydroxypropylcellulose) (HPC) 98 % of control | dose: 200.0 mg/kg/injection, schedule: Q04DX003 (ip), vehicle: Klucel (hydroxypropylcellulose) (HPC) 98 % of control | dose: 400.0 mg/kg/injection, schedule: Q04DX003 (ip), vehicle: Klucel (hydroxypropylcellulose) (HPC) 91 % of control

CCOc1ccc(/C=C/c2cc[n+](C)cc2)cc1OC
inactive: [12] 103 % of control

Cc1c(F)cccc1[N+](=O)[O-]
inactive: [7] 101 % of control | [9] 104 % of control | [20] 98 % of control

OCC1C2C=CC1CC2 (configuration not stated)
inactive: [10] 95 % of control | [11] 96 % of control | [19] 96 % of control

CCOC(=O)C(C(=O)OCC)C1CCS(=O)(=O)C1 (configuration not stated)
inactive: [10] 95 % of control | [11] 97 % of control | [19] 95 % of control

CC1(C(=O)O)CCOC1=O (configuration not stated)
inactive: dose: 100.0 mg/kg/injection, schedule: Q04DX002 (ip), vehicle: saline 102 % of control | dose: 200.0 mg/kg/injection, schedule: Q04DX002 (ip), vehicle: saline 107 % of control

CCNCc1cc(Nc2cc(C)nc(/N=C(\N)Nc3ccc(Cl)c(Cl)c3)n2)ccc1OC
inactive: dose: 25.0 mg/kg/injection, schedule: Q01DX009 (ip), vehicle: Klucel (hydroxypropylcellulose) (HPC) 100 % of control

CCN=C(NCC)SCCSC(=NCC)NCC
inactive: dose: 100.0 mg/kg/injection, schedule: Q04DX002 (ip), vehicle: saline with Tween-80 104 % of control | dose: 200.0 mg/kg/injection, schedule: Q04DX002 (ip), vehicle: saline with Tween-80 102 % of control

CC(C)(C)C(C)(O)CN (configuration not stated)
inactive: [4] 95 % of control | [5] 101 % of control | [6] 92 % of control

CN(CC#CCOc1ccc(Br)cc1)c1ccccc1
inactive: [9] 103 % of control | [20] 100 % of control | [21] 97 % of control

N#CSCN1C(=O)C=CC1=O
inactive: [1] 93 % of control | [2] 89 % of control | [3] 93 % of control

c1ccc(CSC(SCc2ccccc2)c2ccccc2)cc1
inactive: dose: 100.0 mg/kg/injection, schedule: Q01DX009 (ip), vehicle: Klucel (hydroxypropylcellulose) (HPC) 86 % of control | [10] 96 % of control | dose: 200.0 mg/kg/injection, schedule: Q01DX009 (ip), vehicle: Klucel (hydroxypropylcellulose) (HPC) 92 % of control | [11] 100 % of control | dose: 400.0 mg/kg/injection, schedule: Q01DX009 (ip), vehicle: Klucel (hydroxypropylcellulose) (HPC) 92 % of control | [19] 97 % of control
